Assay [1] addresses T1, VMAT2 (Rattus norvegicus, UniProt Q01827).
T1 construct: endogenous in cells; host or cells: rat INS 832/13 insulinoma cells
In words: Fake Fluorescent Neurotransmitter (FFN) uptake high throughput assay in INS 832/13 cells. Type of assay: cell-based. The text has this: A high throughput (HTP) assay was developed to screen for compounds that interact with, e.g., bind to, VMAT2. The HTP exploits a class of compounds called Fake Fluorescent Neurotransmitters (FFN) that share the following characteristics a) low molecular weight and sufficiently hydrophilic to be water soluble; b) in aqueous buffer (pH 7), the excitation maxima is around 380-406 nm and the emission maxima is around 501 nm; and c) similar Kd for VMAT2 as dopamine. To validate the use of these compounds in beta cell lines (positive for VMAT2) the following set of experiments were performed.
The rat INS 832/13 cell line was selected because it secretes insulin in response to glucose concentrations in the physiological range and can be shown to contain VMAT2 by PCR. […] INS cells were grown on cover slips in normal media, then pretreated with and without DTBZ in low glucose media for one hour and then loaded with FFN (GH206). The distribution of fluorescent dye was then examined under a fluorescent microscope. The FFN distributes itself intracellularly in a punctate pattern similar, if not identical, to insulin containing granules of this cell line (data not shown). […] For better quantitation of the fluorescent signal, the cells were grown in […] and the same experiment substantially repeated. Briefly, cells were grown to confluence in complete high glucose media, then incubated for one hour in low glucose media. DTBZ was then added to the wells for one hour, followed with a second one hour incubation with FFN. Wells were then washed and the fluorescent signal (380 exc, 512 emm) measured in a multiwell fluorometer (Synergy HT Multi-Mode Microplate Reader).

In assay [2] the target is T1, VMAT2. In words: PET displacement of [11C]DTBZ in pancreas. The settings on record: cold compound 2 mg/kg, 30 minutes after radioligand. Type of assay: in vivo. As for the experimental part:
PET scans were performed on 12-14-week-old Lewis male rats. Prior to imaging, the animals were anesthetized by isoflurane inhalation. After a transmission scan of the area of interest had been acquired (used to perform attenuation correction of the emission data), the radioligand [^11C]DTBZ was administered (0.5-1.0 μCi/gm) in saline as a bolus injection via the penile vein. PET scans of the animals were acquired dynamically to 90 minutes post-injection on a Concorde microPET-R4 (CTI Molecular Imaging (Knoxville, Tenn.)). The scanner provided a 100×80 mm field of view with a reconstructed resolution of 2.25 mm in the central 40 mm of the field of view.
At thirty minutes post injection of [^11C]DTBZ, animals received a second injection via the penile vein of cold analog. PET data were processed using an attenuation correction matrix obtained by transmission scans and images were reconstructed using Fourier rebinning, followed by two-dimensional, filtered back projection using microPET manager software (CTI Molecular Imaging (Knoxville, Tenn.)).
To test whether the strong hypoglycemic effect of compound 8 is conferred by binding to VMAT2 in beta cells, a PET study in rats was performed. The animals were treated with radiolabeled DTBZ, and the uptake of [^11C]DTBZ in pancreas was monitored by PET scan in the presence of an excess of compound 8.
For orientation: In a radioligand displacement assay an active substance lowers the binding of a labelled ligand.

In a further assay the target is T2, DPP-IV (Homo sapiens, UniProt P27487).
T2 construct: purchased BPS Bioscience, Inc. (San Diego, Calif.)
T2 sequence (P27487 whole entry, species assumed): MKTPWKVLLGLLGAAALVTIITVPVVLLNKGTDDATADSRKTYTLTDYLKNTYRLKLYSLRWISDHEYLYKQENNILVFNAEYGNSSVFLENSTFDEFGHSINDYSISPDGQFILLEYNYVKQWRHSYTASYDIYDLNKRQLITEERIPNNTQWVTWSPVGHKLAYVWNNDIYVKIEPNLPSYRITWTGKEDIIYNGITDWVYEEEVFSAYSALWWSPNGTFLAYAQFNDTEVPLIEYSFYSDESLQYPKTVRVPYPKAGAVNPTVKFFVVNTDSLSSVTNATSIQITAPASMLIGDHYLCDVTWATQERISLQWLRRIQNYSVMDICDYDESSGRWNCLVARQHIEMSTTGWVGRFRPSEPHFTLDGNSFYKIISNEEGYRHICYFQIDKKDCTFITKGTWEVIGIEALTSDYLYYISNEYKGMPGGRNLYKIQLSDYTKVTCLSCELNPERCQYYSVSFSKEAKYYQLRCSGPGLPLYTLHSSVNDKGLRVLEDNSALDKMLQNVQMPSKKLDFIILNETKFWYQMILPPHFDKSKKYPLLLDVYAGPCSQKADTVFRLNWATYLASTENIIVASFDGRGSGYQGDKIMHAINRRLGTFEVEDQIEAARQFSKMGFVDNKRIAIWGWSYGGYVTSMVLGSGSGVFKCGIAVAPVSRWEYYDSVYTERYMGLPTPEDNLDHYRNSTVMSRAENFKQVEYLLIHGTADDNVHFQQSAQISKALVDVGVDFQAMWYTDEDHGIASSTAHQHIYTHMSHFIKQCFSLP
In words: DPP profiling service (BPS Bioscience), in vitro. Type of assay: biochemical. Conditions: concentrations up to 10 μM. As for the experimental part:
The effect of DTBZ on DDP-IV was determined using the DPP profiling service from BPS Bioscience, Inc. (San Diego, Calif.).

In a further assay the test system is Lewis rats. In words: Intraperitoneal glucose tolerance test (IPGTT), blood glucose. Type of assay: in vivo, rat. As for the experimental part:
Rats were handled daily to minimize nonspecific stress for more than 7 days before the experiments began. In most experiments, it was necessary to measure blood glucose in fasting animals. For these groups, food was removed at the beginning of the light cycle, 6 hours before glucose levels were tested.
Sixty minutes prior to intraperitoneal glucose tolerance testing (IPGTT), anesthesia of male Lewis rats was induced with isoflurane (3-4% in oxygen) and maintained with 1-2% isoflurane in oxygen.
Anaesthetized rats were administered TBZ at the indicated dose by intravenous (i.v.) injection using the penile vein. […] Control rats received injections of vehicle alone (10% DMSO in Saline).
Animals were fully recovered for at least 30 minutes before receiving IPGTT. In specified experiments, L-DOPA was injected interperitoneal (I.P.) at the specified dose at the initiation of IPGTT. Abnormal glucose tolerance was induced by a single I.P. injection of streptozotocin (STZ) (Sigma Aldrich, St. Louis, Mo.) (50 mg/kg) to animals that had been fasted 4 hours to enhance the efficacy of STZ.
Blood samples were collected between 12:00 noon and 2:00 p.m. from a superficial blood vessel in the tails of the rats following 6 hours of fasting. The fasting blood glucose (BG) levels of the rats were measured using an Accu-Check blood glucose monitoring system (Roche Diagnostics, Sommerville, N.J.). IPGTT was performed in 6-hour fasting anaesthetized animals as previously described (Weksler-Zangen, et al. 2001). Briefly, after baseline BG measurements, animals received an I.P. injection of 2 grams of glucose/kg body weight. To minimize stress during the procedure, rats were handled by the same operator during acclimatization and later during weighing and IPGTT. Blood samples (50 μl or 150 μl) were collected at baseline and then again 15, 30, 60, 90, and 120 minutes following I.P. injection of glucose. Blood glucose concentrations were measured immediately on these samples and the remainder processed. Plasma was immediately separated by centrifugation at 3,000×g for 15 minutes and then stored at −80° C. until analysis.
Insulin and glucagon concentration measurements in rat plasma were performed by ELISA as per the manufacturer's instructions using kits from Linco Research Inc. (St. Charles, Mich.) and Alpco Diagnostics (Salem, N.H.), respectively. To validate the test, saline injections were performed by the same method. […] The area under the insulin, glucagon and IPGTT glucose concentration×time curve (AUC IPGTT) was calculated by the trapezoidal rule.

T1 sequence (Q01827 whole entry): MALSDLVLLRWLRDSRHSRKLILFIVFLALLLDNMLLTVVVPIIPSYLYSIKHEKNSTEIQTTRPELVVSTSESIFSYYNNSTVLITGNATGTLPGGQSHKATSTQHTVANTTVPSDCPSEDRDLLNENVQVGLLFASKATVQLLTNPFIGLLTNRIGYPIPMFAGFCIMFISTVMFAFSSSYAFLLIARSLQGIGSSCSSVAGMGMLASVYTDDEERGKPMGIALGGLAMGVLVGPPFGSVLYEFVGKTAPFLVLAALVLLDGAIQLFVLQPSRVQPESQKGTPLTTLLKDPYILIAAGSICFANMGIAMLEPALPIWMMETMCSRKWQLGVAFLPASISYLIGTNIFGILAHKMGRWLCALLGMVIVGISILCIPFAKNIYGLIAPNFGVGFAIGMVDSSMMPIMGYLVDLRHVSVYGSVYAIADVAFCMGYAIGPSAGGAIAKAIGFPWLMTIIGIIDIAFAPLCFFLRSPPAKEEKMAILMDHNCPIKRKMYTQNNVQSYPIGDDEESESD

On to `COc1ccc(C2CC(OCC(C)C)=CC(=O)N2)cc1OC` (stereo not drawn) [compound 8], for which the “activity on a per mole basis in blocking FFN transport” value on VMAT2 [1] was “less than that of DTBZ”. Moreover, the “block of FFN uptake/transport” value on VMAT2 [1] (one hour preincubation) was “able to block FFN transport into INS vesicles”. The “binding to VMAT2, displacement of [11C]DTBZ in the endocrine pancreas, relative to DTBZ” value on VMAT2 [2] is reported as “at least a weak binding”. Further, at DPP-IV, the “effect on DPP-IV” value is “negative”. Besides, the “decrease of AUC IPGTT” value in the assay on Lewis rats (2 mg/kg i.v. 30 minutes before glucose 2 g/kg I.P.) is reported as 45%. The “hypoglycemic activity in IPGTT (improvement of glucose tolerance)” value in the assay with Lewis rats (2 mg/kg i.v., Lewis rats) was “potent hypoglycemic effect”.

The values above are taken from patent publication US9012471B2, “Glucose metabolism modulating compounds” (The Trustees of Columbia University in the City of New York, priority 2008, dated 2015).
